# Laboratory results as given in PMC7561186, “Rational design of balanced dual-targeting antibiotics with limited resistance” (PLoS Biology, 2020).
# Several values for one entry are separate records, joined by “and”; a condition that tells them apart may be missing. Identical values can stand only once. Like-named read-outs stand apart in the source and are kept apart here.
# What was measured:
# [1] = molecular target: T1, S. aureus topoisomerase IV (Staphylococcus aureus, UniProt P0C1S7); test: S. aureus topoisomerase IV gel-based assay; assay type: biochemical; details: quadruplicates
# T1 construct: purchased Inspiralis Ltd., Norwich, UK
# S. aureus = test: pH-dependent MIC determination; assay type: cell-based; details: Staphylococcus aureus
# Description: (§1) MICs were determined using a standard serial broth microdilution technique according to the CLSI guidelines. Briefly, bacterial strains were inoculated onto MHBII agar plates and were grown overnight at 37 °C. Next, 3 individual colonies from each strain were inoculated into 1 mL MHBII medium and propagated at 37 °C, 250 rpm overnight. In the cases of Enterococcus and Streptococcus sp., cells were plated to BHI agar plates, and BHI broth was used to determine MICs. […] Following dilutions, each well was seeded with 5×10^4 bacterial cells. All measurements were performed in 3 parallel replicates and to avoid possible edge effects in microwell plates, side rows (A and H) were filled with sterile medium. Following inoculations, plates were covered with lids and wrapped in polyethylene plastic bags to minimize evaporation but allow for O2 transfer. Plates were incubated at 37 °C under continuous shaking at 150 rpm for 18 hours. After incubation, OD600 of each well was measured using a BioTek Synergy 2 microplate reader.
# [2] = system: human hERG potassium ion channel
# Description: Inhibition of the human hERG cardiac K+ ion channel was determined by Eurofins Panlabs (St. Charles, MO, USA) by using QPatch automated whole-cell patch-clamp electrophysiology, as described previously. […] During measurements, after whole-cell patch configuration was achieved, the cells were held at −80 mV. Next, a 500-millisecond pulse to −40 mV was delivered to measure the leaking current, which was then subtracted from the tail current’s readout. Then the cell was depolarized to +40 mV for 500 milliseconds and then to −80 mV over a 100-millisecond ramp to elicit the hERG tail current. This workflow was repeated once in every 8 seconds to monitor the current amplitude. The parameters measured during each test were the maximum tail current evoked on stepping to 40 mV and ramping back to −80 mV from the test pulse. All data were filtered for seal quality, seal drop, and current amplitude. The peak current amplitude was calculated before and after compound addition, and the amount of inhibition was assessed by dividing the test compound’s current amplitude by the control’s current amplitude. During our tests, the control was the mean hERG current amplitude collected 15 seconds at the end of each measurement, and the test compound was the mean hERG current amplitude collected in the presence of test compound at the given concentration.
# [3] = system: novobiocin-resistant S. aureus VISA ATCC 700699 mutants; test: MIC against novobiocin-resistant (novobiocin-adapted) strains; assay type: cell-based; details: for MIC: Staphylococcus aureus
# Description: as §1
# Clostridium difficile = test: MIC, broth microdilution (CLSI); assay type: cell-based
# Description: as §1
# [4] = system: S. aureus ATCC 700699 VISA; test: Time-dependent killing; assay type: cell-based; details: for Time-kill bacterial count: 10xMIC; for Colony numbers: time-kill raw counts, Samples 1-3
# CHO-K1 cells = assay type: cell-based, hamster; details: for % Micronucleated cells / Micronucleus Test Result: 4 hours, CHO-K1
# Description: Genetic toxicity analysis of compounds was performed in an in vitro micronucleus test, according to the protocol described in Diaz and colleagues (2007), at Eurofins Panlabs (St. Charles, MO, US). Micronucleated cells and micronuclei were enumerated by the use of high-content fluorescent cell imaging. The assay was performed on CHO-K1 cells. […] Experiments were performed in 2 biological replicates. All cell lines were tested as being negative for Mycoplasma contamination.
# [5] = system: S. aureus ATCC 700699 and S. aureus ATCC 43300; test: Spontaneous frequency-of-resistance assay; assay type: cell-based
# Description: Prior to plating, bacteria were grown overnight in MHBII medium at 37 °C, 250 rpm, collected by centrifugation, and washed once in equal volumes of MHBII broth. From this concentrated cell suspension (250 μL), approximately 10^10 cells were then plated to each MHBII agarose plates. […] All experiments were performed in at least 3 replicates. Plates were grown at 37 °C for 72 hours. Total CFUs were determined simultaneously in each experiment by plating appropriate dilutions to antibiotic-free MHBII agar plates. Finally, resistance frequencies for each strain were calculated by dividing the number of colonies formed after a 72-hour incubation at 37 °C by the initial viable cell count.
# HepG2 cells = details: LDH assay
# Description: Cytotoxicity of compounds on HepG2 and MCF-7 mammalian cell lines was determined by using a standard LDH assay. Briefly, HepG2 and MCF-7 cells were cultured in Eagle’s MEM medium (from Gibco) supplemented with 2 mM L-glutamine (Sigma), 100 U/mL penicillin (Sigma), and 100 μg/mL streptomycin (Sigma), and 10% FBS (Gibco) at 37 °C and under 5% CO2. Next, LDH assays were performed according to manufacturer instructions (Thermo Fisher Scientific, Massachusetts, USA). By using a CyQUANT LDH Cytotoxicity Assay Kit. Firstly, the cells were seeded in 96-well microtiter plates at 10^5 cells/mL (100 μL/well) and allowed to attach overnight. […] Lysis buffer (10 μL, Thermo Fisher Scientific) was then added to the maximal LDH activity control wells and incubated additional 45 minutes. The cell culture supernatant (50 μL) was then transferred to a new 96-well plate and mixed with 50 μL of the reaction mixture. After 30 minutes on room temperature, reactions were stopped with 50 μL of the Stop solution. Absorbance (490 nm and 680 nm) was measured with the automatic microplate reader Synergy 4 Hybrid Microplate Reader (BioTek, VT, USA). All experiments were performed in triplicates and repeated 3 times. Statistical significance (P < 0.05) was calculated with 2-tailed Welch’s t-test between treated groups and DMSO. The percentage of cytotoxicity was determined according to the following equation: %Cytotoxicity=(CompoundtreatedLDHactivity-SpontaneousLDHactivity/MaximumLDHactivity-SpontaneousLDHactivity)*100
# T1 sequence (P0C1S7 whole entry): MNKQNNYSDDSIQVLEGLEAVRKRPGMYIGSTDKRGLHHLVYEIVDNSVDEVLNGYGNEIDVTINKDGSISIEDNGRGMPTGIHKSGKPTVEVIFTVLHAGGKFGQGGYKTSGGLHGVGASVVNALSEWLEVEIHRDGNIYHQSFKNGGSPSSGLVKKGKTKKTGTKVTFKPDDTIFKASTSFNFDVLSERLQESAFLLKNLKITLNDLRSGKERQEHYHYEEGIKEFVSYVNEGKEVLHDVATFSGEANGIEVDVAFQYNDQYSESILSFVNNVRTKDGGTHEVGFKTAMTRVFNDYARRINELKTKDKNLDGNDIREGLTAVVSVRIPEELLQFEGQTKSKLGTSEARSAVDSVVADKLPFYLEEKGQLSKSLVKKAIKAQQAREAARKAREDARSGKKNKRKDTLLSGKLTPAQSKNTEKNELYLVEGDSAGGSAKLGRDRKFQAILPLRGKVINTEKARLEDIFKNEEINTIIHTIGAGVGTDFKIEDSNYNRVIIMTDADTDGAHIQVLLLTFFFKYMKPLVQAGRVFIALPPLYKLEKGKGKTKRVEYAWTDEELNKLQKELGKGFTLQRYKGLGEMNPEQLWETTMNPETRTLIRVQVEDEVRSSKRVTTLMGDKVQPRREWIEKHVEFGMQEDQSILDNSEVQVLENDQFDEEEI
# T1 sequence (P0C1U9 whole entry, further chain): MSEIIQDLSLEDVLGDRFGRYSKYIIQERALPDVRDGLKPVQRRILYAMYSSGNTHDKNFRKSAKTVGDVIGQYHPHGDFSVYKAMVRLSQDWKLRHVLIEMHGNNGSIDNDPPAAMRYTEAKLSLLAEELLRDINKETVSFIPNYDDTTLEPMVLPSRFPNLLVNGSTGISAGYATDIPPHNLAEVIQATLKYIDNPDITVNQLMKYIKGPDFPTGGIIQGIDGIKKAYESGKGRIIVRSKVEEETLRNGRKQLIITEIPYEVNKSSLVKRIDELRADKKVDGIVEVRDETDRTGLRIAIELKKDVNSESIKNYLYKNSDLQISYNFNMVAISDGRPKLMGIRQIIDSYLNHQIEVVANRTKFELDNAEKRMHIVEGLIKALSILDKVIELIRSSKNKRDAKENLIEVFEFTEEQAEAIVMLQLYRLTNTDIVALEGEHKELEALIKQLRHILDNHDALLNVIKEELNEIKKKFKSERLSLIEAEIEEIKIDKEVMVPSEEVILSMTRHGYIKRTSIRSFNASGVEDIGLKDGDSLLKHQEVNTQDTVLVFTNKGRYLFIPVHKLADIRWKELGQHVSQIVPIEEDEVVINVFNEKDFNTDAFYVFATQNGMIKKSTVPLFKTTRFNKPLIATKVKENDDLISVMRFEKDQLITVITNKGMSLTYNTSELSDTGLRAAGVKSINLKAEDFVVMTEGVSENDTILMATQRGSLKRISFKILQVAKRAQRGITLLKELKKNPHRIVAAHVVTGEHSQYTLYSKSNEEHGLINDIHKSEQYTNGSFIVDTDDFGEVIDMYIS
smiles,measurement,setting,value
Cc1[nH]c(C(=O)Nc2nc3c(OCc4ccccc4)cc(C(=O)O)cc3s2)c(Cl)c1Cl [ULD2],IC50,[1],2 ± 0.3 nM
same,MIC,"S. aureus; S. aureus ATCC 43300 (MRSA), pH 5.5",0.008 µg/mL
same,MIC,"S. aureus; S. aureus ATCC 43300 (MRSA), pH 7.3",0.06 µg/mL
same,MIC,"S. aureus; S. aureus ATCC 700699 (VISA), pH 5.5",0.0005 µg/mL
same,MIC,"S. aureus; S. aureus ATCC 700699 (VISA), pH 7.3",0.02 µg/mL
same,inhibitory effect on human hERG ion channels,"[2]; 150 μM, in words",No statistically significant inhibitory effect
same,Significant (hERG inhibition),"[2]; hERG, 150 µM",No (Only results showing an inhibition higher than 50% are considered to represent significant effects of the tested compounds)
same,Normalized inhibition (%),"[2]; hERG, 150 µM, n = 8",27%
same,cross-resistance of novobiocin-resistant isolates,"[3]; 9 independently evolved novobiocin-resistant isolates, in words",no cross-resistance
same,MIC,"[3]; WT S. aureus VISA ATCC 700699, read-out: MIC",0.02 µg/mL
same,MIC,[3]; novobiocin-adapted Evolved 1,0.016 µg/mL
same,MIC,[3]; novobiocin-adapted Evolved 2,0.016 µg/mL
same,MIC,[3]; novobiocin-adapted Evolved 3,0.016 µg/mL
same,MIC,[3]; novobiocin-adapted Evolved 4,0.063 µg/mL
same,MIC,[3]; novobiocin-adapted Evolved 5,0.031 µg/mL
same,MIC,[3]; novobiocin-adapted Evolved 6,0.016 µg/mL
same,MIC,[3]; novobiocin-adapted Evolved 7,0.016 µg/mL
same,MIC,[3]; novobiocin-adapted Evolved 8,0.016 µg/mL
same,MIC,[3]; novobiocin-adapted Evolved 9,0.016 µg/mL
same,MIC,"Clostridium difficile; Clostridioides difficile, BAA1875",≤ 0.0312 µg/mL
same,MIC,Clostridium difficile; Clostridium difficile BAA-1875,< 0.0312 µg/mL
same,Time-kill bacterial count,[4]; time 0 hour,2.80E+05
same,Time-kill bacterial count,[4]; time 3 hour,9.90E+04
same,Time-kill bacterial count,[4]; time 6 hour,5.60E+04
same,Time-kill bacterial count,[4]; time 12 hour,7.00E+03
same,Time-kill bacterial count,[4]; time 18 hour,4.90E+02
same,Time-kill bacterial count,[4]; time 24 hour,1.90E+02
same,Time-kill bacterial count,[4]; time 48 hour,1.70E+01
same,cell killing (bactericidal) activity,"[4]; 10× MIC, S. aureus ATCC 700699 (VISA), in words",exceed that of fusidic acid
same,Colony numbers,"[4]; time 0 h, Dilution 100",145 and 132 and 137
same,Colony numbers,"[4]; time 3 h, Dilution 100",56 and 39 and 53
same,Colony numbers,"[4]; time 6 h, Dilution 100",28 and 24 and 32
same,Colony numbers,"[4]; time 18 h, Dilution 1",31 and 22 and 20
same,Colony numbers,"[4]; time 48 h, Dilution 0.5",1 and 2
same,% Micronucleated cells,CHO-K1 cells; 1.3 x 10^-4 M,1.07%
same,Micronucleus Test Result,CHO-K1 cells; 1.3 x 10^-4 M,- (A negative test (-) result indicates P > 0.05 by t-test and percentage of micronucleated cells less than 2-fold higher than the background level)
same,% Micronucleated cells,CHO-K1 cells; 2.5 x 10^-4 M,1.36%
same,Micronucleus Test Result,CHO-K1 cells; 2.5 x 10^-4 M,- (A negative test (-) result indicates P > 0.05 by t-test and percentage of micronucleated cells less than 2-fold higher than the background level)
same,% Micronucleated cells,CHO-K1 cells; 3.1 x 10^-5 M,0.57%
same,Micronucleus Test Result,CHO-K1 cells; 3.1 x 10^-5 M,- (A negative test (-) result indicates P > 0.05 by t-test and percentage of micronucleated cells less than 2-fold higher than the background level)
same,% Micronucleated cells,CHO-K1 cells; 5.0 x 10^-4 M,0.78%
same,Micronucleus Test Result,CHO-K1 cells; 5.0 x 10^-4 M,- (A negative test (-) result indicates P > 0.05 by t-test and percentage of micronucleated cells less than 2-fold higher than the background level)
same,% Micronucleated cells,CHO-K1 cells; 6.2 x 10^-5 M,0.49%
same,Micronucleus Test Result,CHO-K1 cells; 6.2 x 10^-5 M,- (A negative test (-) result indicates P > 0.05 by t-test and percentage of micronucleated cells less than 2-fold higher than the background level)
same,genetic toxicity,"CHO-K1 cells; CHO-K1 micronucleus assay, in words",No genetic toxicity
same,resistant mutants emerged,"[5]; 4×10^12 S. aureus ATCC 700699 (VISA) cells, 4 times the wild-type MIC, in words",no ULD2 resistant mutants have emerged
same,mutant prevention concentration (MPC),"[5]; S. aureus ATCC 700699 (VISA), estimate",0.08 µg/mL
same,Spontaneous frequency-of-resistance (replicates),"[5]; Staphylococcus aureus (MRSA) ATCC 43300, 2xMIC",1.00E-12 and 1.529e-10 and 1.99e-10 and 7.692e-11 and 9.00E-10 and 1.80E-09 and 1.43E-10
same,Spontaneous frequency-of-resistance (replicates),"[5]; Staphylococcus aureus (MRSA) ATCC 43300, 4xMIC",5.00E-11 and 1.67E-10 and 7.14E-11 and 1.00E-12
same,Spontaneous frequency-of-resistance (replicates),"[5]; Staphylococcus aureus (MRSA) ATCC 43300, 8xMIC",1.00E-12
same,Spontaneous frequency-of-resistance (replicates),"[5]; Staphylococcus aureus (VISA) ATCC 700699, 2xMIC",1.00E-12 and 8.77E-11
same,Spontaneous frequency-of-resistance (replicates),"[5]; Staphylococcus aureus (VISA) ATCC 700699, 4xMIC",1.00E-12
same,Spontaneous frequency-of-resistance (replicates),"[5]; Staphylococcus aureus (VISA) ATCC 700699, 8xMIC",1.00E-12
same,Max. % inhibition at 100 µM,HepG2 cells,Max. % inhibition at 100 µM: 1.96%
